Results on 17 molecules are retold here after paper PMC9034162, “Development of pyrazoline-based derivatives as aminopeptidase N inhibitors to overcome cancer invasion and metastasis” (RSC Advances, 2021).

Data set [1] deals with T1, porcine APN (Sus scrofa, UniProt P15145).
T1 construct: soluble APN from porcine kidney microsomes (Biocol) was used as enzyme; purchased Biocol; host or cells: porcine kidney microsomes (tissue-derived)
T1 sequence (P15145 1-963): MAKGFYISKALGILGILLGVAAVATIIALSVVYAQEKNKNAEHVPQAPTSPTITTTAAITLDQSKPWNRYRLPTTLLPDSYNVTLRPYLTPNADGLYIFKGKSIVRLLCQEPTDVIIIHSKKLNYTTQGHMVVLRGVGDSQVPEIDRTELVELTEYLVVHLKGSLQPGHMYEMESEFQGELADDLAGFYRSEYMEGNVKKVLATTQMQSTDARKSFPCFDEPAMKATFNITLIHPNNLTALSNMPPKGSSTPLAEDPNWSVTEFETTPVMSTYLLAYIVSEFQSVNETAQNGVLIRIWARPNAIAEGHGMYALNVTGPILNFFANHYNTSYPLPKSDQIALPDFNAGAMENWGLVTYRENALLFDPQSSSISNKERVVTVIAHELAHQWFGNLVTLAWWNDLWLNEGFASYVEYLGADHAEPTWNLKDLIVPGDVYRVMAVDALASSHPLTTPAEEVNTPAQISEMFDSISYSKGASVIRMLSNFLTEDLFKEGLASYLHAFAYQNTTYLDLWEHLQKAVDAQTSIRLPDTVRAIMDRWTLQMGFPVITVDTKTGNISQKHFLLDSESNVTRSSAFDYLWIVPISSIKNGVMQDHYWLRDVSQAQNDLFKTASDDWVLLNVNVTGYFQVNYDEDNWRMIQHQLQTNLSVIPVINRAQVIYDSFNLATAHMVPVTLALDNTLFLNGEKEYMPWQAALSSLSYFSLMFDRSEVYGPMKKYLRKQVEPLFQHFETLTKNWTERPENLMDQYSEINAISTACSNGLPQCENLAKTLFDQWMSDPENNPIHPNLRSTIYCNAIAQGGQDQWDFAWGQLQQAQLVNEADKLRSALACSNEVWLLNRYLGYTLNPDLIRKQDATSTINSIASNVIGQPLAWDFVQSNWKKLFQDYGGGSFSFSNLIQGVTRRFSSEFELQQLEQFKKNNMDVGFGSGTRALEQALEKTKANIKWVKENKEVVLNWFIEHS
In words: Enzymatic inhibition assay against APN in vitro. The format is biochemical. The following applies: for IC50: soluble APN from porcine kidney microsomes, L-Leu-p-nitroanilide substrate, pH 7.2, 37 °C 30 min, mean ± SD, triplicate. As to the method: In the enzymatic inhibition assay against APN in vitro, L-Leu-p-nitroanilide was used as substrate and soluble APN from porcine kidney microsomes (Biocol) was used as enzyme. 50 mM PBS with pH 7.2 was used as buffer solution. Briefly, inhibitors (40 μL), PBS (145 μL), substrate (5 μL, 16 mmol L^−1) and APN solution (10 μL, 0.15 IU mL^−1) were added into 96-well plates. The mixture was incubated at 37 °C for 30 min. The optical density resulting from the hydrolysis product p-nitroanilide was measured at 405 nm with a plate reader (Varioskan, Thermo, USA).

Data set [2] in a line: Body weight monitoring in H22 pulmonary metastasis model. The settings on record: 60 mg kg^−1 d^−1 intraperitoneally for 12 days, Kunming mice, weights every two days. Type of data set: in vivo. As to the method: (§1) All animal procedures were performed in accordance with the Guidelines for Care and Use of Laboratory Animals of Shandong University and approved by the Animal Ethical and Welfare Committee (AEWC, China). The mice hepatoma H22 cell line was our laboratory-owned and 6 week old male Kunming mice were purchased from Center for New Drugs Evaluation of Shandong University, China. Firstly, H22 cells suspension (0.1 mL, 7.5 × 10^7 mL^−1) was injected via tail vein to establish a mice H22 pulmonary metastasis model. Subsequently, the mice were randomly divided into treatment and control groups. […] The body weights were monitored every two days. Finally, the mice were sacrificed and the lungs were removed and fixed in Bouin's solution. After 24 h, the metastasis nodes on the surface of pulmonary lobes were counted.

For data set [3], the system named is ES-2. The data set can be described thus: Anti-proliferation assay (MTT). Type of data set: cell-based. The following applies: Homo sapiens, 48 h, mean ± SD, triplicate, read-out: IC50 anti-proliferative, ES-2. As to the method: (§2) The anti-proliferative activities of the selected compounds were evaluated using the MTT method. All the tumor cell lines were cultured in RPMI-1640 medium with 10% FBS at 37 °C in 5% CO2 humidified incubator. Firstly, cells (100 μL) were plated in 96-well plates and allowed to grow for 4 h. Then different concentrations of inhibitors (100 μL) were added. After incubation for 48 h, MTT solution (20 μL per well, 5 mg mL^−1) was added and the mixture was incubated for additional 4 h. Subsequently, the medium were poured off and DMSO (200 μL) was added to dissolve the formed formazan. After shaking for 15 min, the optical density values were measured using a plate reader at 570 nm (Varioskan, Thermo, USA).

The subject of data set [4] is HepG2. In words: Anti-proliferation assay (MTT). Type of data set: cell-based. The following applies: Homo sapiens, 48 h, mean ± SD, triplicate, read-out: IC50 anti-proliferative, HepG2. The procedure:
as §2

Data set [5] has as its system K562. The data set can be described thus: Anti-proliferation assay (MTT). The format is cell-based. The following applies: Homo sapiens, 48 h, mean ± SD, triplicate, read-out: IC50 anti-proliferative, K562. As to the method: as §2
The subject of data set [6] is PC-3. In words: Anti-proliferation assay (MTT). Type of data set: cell-based. The following applies: Homo sapiens, 48 h, mean ± SD, triplicate, read-out: IC50 anti-proliferative, PC-3. As to the method:
as §2

For data set [7], the system named is PLC/PRF/5. The data set can be described thus: Anti-proliferation assay (MTT). Type of data set: cell-based. The settings on record: Homo sapiens, 48 h, mean ± SD, triplicate, read-out: IC50 anti-proliferative, PLC/PRF/5. The procedure:
as §2

The subject of data set [8] is U937. In words: Anti-proliferation assay (MTT). The format is cell-based. The settings on record: Homo sapiens, U-937, 48 h, mean ± SD, triplicate, read-out: IC50 anti-proliferative, U937. The procedure: as §2
In data set [9] the test system is ES-2 cells invasion. The data set can be described thus: In vitro anti-invasion assay (matrigel transwell). The format is cell-based. As to the method: The carbonate membrane coated with matrigel in the upper chamber of transwell insert (BD BioCoat™ Matrigel™ Invasion Chambers) was rehydrated with RPMI-1640 culture medium (500 μL) containing 1% FBS for 2 h. After removing the medium, the upper and lower chambers were added the RPMI-1640 culture medium (100 μL) with 1% FBS containing the tested compounds and the RPMI-1640 culture medium (750 μL) with 10% FBS, respectively. Then, ES-2 cells suspending in the RPMI-1640 culture medium containing 1% FBS (400 μL, 2.5 × 10^5 cells per mL) were added into the upper chambers. The system was placed at 37 °C in 5% CO2 for 8 h. The ES-2 cells could invade the matrigel and migrate from the upper surface of the carbonate membrane into the lower surface of that. ES-2 cells on the upper surface of the carbonate membrane were erased by cotton swabs. Then, ES-2 cells on the lower surface were fixed with methanol, stained with 0.1% crystal violet, of which the photographs were taken under an inverted microscope. The average numbers of ES-2 cells in five random fields (100×) per well were counted. The inhibition rate of ES-2 cells invasion was calculated as follows: (A − B)/A × 100%, A means the number of ES-2 cells in the control group, and B means the number of ES-2 cells in the treated group. The experiments were repeated three times.

Data set [10] relates to mice H22 hepatoma cells. The data set can be described thus: In vivo anti-metastatic assay, mice H22 hepatoma cell pulmonary metastasis model. The settings on record: 60 mg kg^−1 d^−1 intraperitoneally for 12 days, Kunming mice, H22 cells via tail vein. The procedure: as §1

Consider `NC(=O)N1N=C(c2cccc(Br)c2)CC1c1ccccc1OCC(=O)NO` (stereo not shown) [2b], for which the melting point was in the range of 164.4 to 166.4 °C. The IC50 in data set [1] stood at 0.26 ± 0.05 µM.
For `NC(=O)N1N=C(c2ccc(Br)cc2)CC1c1ccccc1OCC(=O)NO` (stereo not shown) [2c] the same measures were 190.2 to 192.2 °C and 2.1 ± 0.2 µM.
On to `COc1ccccc1C1=NN(C(N)=O)C(c2ccccc2OCC(=O)NO)C1` (stereo not shown) [2d], for which the melting point fell in the range of 198.4 to 200.2 °C. In [1], this molecule returned an IC50 of 0.27 ± 0.01 µM.
Turning to `COc1cccc(C2=NN(C(N)=O)C(c3ccccc3OCC(=O)NO)C2)c1` (stereo not shown) [2e], the melting point was 208.5 to 210.3 °C. The molecule also returned an IC50 in data set [1] of 0.32 ± 0.03 µM.
In turn, `COc1ccc(C2=NN(C(N)=O)C(c3ccccc3OCC(=O)NO)C2)cc1` (stereo not shown) [2f] gave a melting point of 168.4 to 170.2 °C. The IC50 in data set [1] was 12.5 ± 0.8 µM.
For `Cc1ccccc1C1=NN(C(N)=O)C(c2ccccc2OCC(=O)NO)C1` (stereo not shown) [2g] the same measures were 144.5 to 146.2 °C and 0.11 ± 0.01 µM.
For `NC(=O)N1N=C(c2ccccc2F)CC1c1ccccc1OCC(=O)NO` (stereo not shown) [2h] the same measures were 124.4 to 126.1 °C and 0.15 ± 0.01 µM.
For `NC(=O)N1N=C(c2c(F)cccc2F)CC1c1ccccc1OCC(=O)NO` (stereo not shown) [2j] the same measures were 186.2 to 188.2 °C and 0.12 ± 0.01 µM.
Molecule `NC(=O)N1N=C(c2ccc(Cl)cc2Cl)CC1c1ccccc1OCC(=O)NO` (stereo not shown) [2l] yielded a melting point of 196.3 to 198.2 °C. The molecule also gave an IC50 in [1] of 0.42 ± 0.03 µM.
Consider `NC(=O)N1N=C(c2cccc3ccccc23)CC1c1ccccc1OCC(=O)NO` (stereo not shown) [2m], for which the melting point was 204.2 to 206.2 °C. In data set [1] (IC50 ratio vs 2n), the “fold more potent against APN than 2n” value is on record as “over 10 fold”. Further, the IC50 in [1] is 0.21 ± 0.04 µM.
In turn, `NC(=O)N1N=C(c2ccc3ccccc3c2)CC1c1ccccc1OCC(=O)NO` (stereo not shown) [2n] returned a melting point of 166.2 to 168.2 °C. The molecule further gave an IC50 in data set [1] of 2.5 ± 0.1 µM.
Regarding `CC(C)C[C@H](NC(=O)[C@@H](O)[C@H](N)Cc1ccccc1)C(=O)O` [Bestatin, reference compound], the “body weight loss” value in data set [2] is “no significant body weight loss”. The IC50 in [3], in [4], in data set [5], in [6], in [7] and in data set [8] was above 500 µM throughout.
With `NC(=O)N1N=C(c2ccccc2)CC1c1ccccc1OCC(=O)NO` (stereo not shown) [compound 1, reference compound], the IC50 in data set [1] came to 0.15 ± 0.02 µM.
In the case of `NC(=O)N1N=C(c2ccccc2Br)CC1c1ccccc1OCC(=O)NO` (stereo not shown) [compound 2a, 3-(2-Bromophenyl)-5-(2-(2-(hydroxyamino)-2-oxoethoxy)phenyl)-4,5-dihydro-1H-pyrazole-1-carboxamide], the melting point lay within 168.4 to 170.2 °C. This molecule also displayed an IC50 in data set [1] of 0.15 ± 0.03 µM.
For `NC(=O)N1N=C(c2ccccc2Cl)CC1c1ccccc1OCC(=O)NO` (stereo not shown) [compound 2i] the same measures were 172.2 to 174.1 °C and 0.1 ± 0.01 µM.
In turn, `NC(=O)N1N=C(c2c(Cl)cccc2Cl)CC1c1ccccc1OCC(=O)NO` (stereo not shown) [compound 2k] gave a melting point of 200.2 to 202.2 °C. Also, the “anti-invasion activity at 10 μM compared with 100 μM of bestatin” value in data set [9] (ES-2 cells, 10 μM of 2k vs 100 μM bestatin) was “comparable, if not better”. Further, in data set [9] (ES-2 cells, both at 100 μM, P < 0.05), the “anti-invasion effect at 100 μM compared with bestatin” value is reported as “significantly better than that of bestatin”. Besides, the “inhibition of ES-2 cells invasion” value in data set [9] (transwell with matrigel, 8 h, several concentrations) is reported as “inhibit the ES-2 cells invasion in a concentration dependent manner”. For the same molecule, in data set [2], the “body weight loss” value is listed as “no significant body weight loss”. For the same molecule, the “in vivo anti-metastasis effect” value in data set [10] was “effectively prevent the pulmonary metastasis”. Also, the IC50 in data set [3] was found to be 141 ± 3.8 µM. Besides, the IC50 in data set [4] came to 101 ± 4.9 µM. Further, the IC50 in data set [5] came out at 15.6 ± 2.2 µM. Further, the IC50 in [6] was 56.1 ± 3.1 µM. Moreover, the IC50 in data set [7] is 106 ± 4.7 µM. The IC50 in data set [8] came to 49.2 ± 3.8 µM. Also, in [1] (IC50 ratio vs bestatin), the “fold more potent against APN than bestatin” value is “over 140 fold”. The “fold more potent against APN than compound 1” value in data set [1] (IC50 ratio vs compound 1) is recorded as above 2 fold. For the same molecule, the IC50 in data set [1] amounted to 0.064 ± 0.01 µM.
Consider `COc1ccccc1C1=NN(C(N)=O)C(c2ccccc2OCC(=O)NN)C1` (stereo not shown) [compound 2o, 5-(2-(2-Hydrazinyl-2-oxoethoxy)phenyl)-3-(2-methoxyphenyl)-4,5-dihydro-1H-pyrazole-1-carboxamide], for which the melting point was 156.6 to 158.2 °C. For the same molecule, the IC50 in data set [1] was found to be 30.2 ± 1.9 µM.

In general, melting point refers to the temperature of the solid-liquid transition.
